In patent US5585385A, “Heterocyclic compounds, their production and use as tachykinin reactor antagonists” (Takeda Chemical Industries, Ltd., priority 1993, dated 1996) one finds IC50 data, which are given here for 26 compounds.

For this test, the target named is T1, substance P receptor (Homo sapiens, UniProt P25103).
T1 construct: The receptor was prepared from human lymphoblast cells (IM-9); endogenous in cells; host or cells: IM-9 human lymphoblast cells (crude membrane preparation)
The experiment in a line: Radioligand receptor binding inhibitory activity using receptor from human lymphoblast cells (IM-9), 125I-BHSP. The settings on record: human IM-9 cell receptor, 25° C., 30 minutes, pH 7.4, n=1. As for the experimental part: Radioligand receptor binding inhibitory activity
Binding inhibitory activity using receptor from human lymphoblast cells (IM-9)
The method of A. Margaret "Molecular Pharmacology 42, p.458 (1992)" was modified and used. The receptor was prepared from human lymphoblast cells (IM-9). IM-9 cells (2×10^5 cells/ml) were inoculated and incubated for 3 days (one liter), which was then subjected to centrifuge for 5 minutes at 500×g to obtain cell pellets. The pellets were washed once with phosphate buffer (Flow Laboratories, CAT. No. 28-103-05), which were then crushed using Polytron.homogenizer "Kinematika, Germany" in 30 ml of 50 mM Tris-HCl buffer (pH 7.4) containing 120 mM sodium chloride, 5 mM potassium chloride, 2 μg/ml chymostatin, 40 μg/ml bacitracin, 5 μg/ml phosphoramidon, 0.5 mM phenylmethyl sulfonyl fluoride, 1 mM ethylenediamine tetra-acetic acid, which was subjected to centrifuge at 40,000×g for 20 minutes. The residue was washed twice with 30 ml of the above-mentioned buffer, which was then preserved frozen (-80° C.) as a specimen of the receptor.
The specimen was suspended in a reaction buffer (50 mM Tri-HCl buffer (pH 7.4), 0.02% bovine serum albumin, 1 mM phenylmethylsulfonyl fluoride, 2 μg/chymostatin, 40 μg/ml bacitracin, 3 mM manganese chloride) and 100 ul portion was the suspension was used in the reaction. After addition of the sample and ^125 I-BHSP (0.46 KBq), the reaction was allowed to proceed in 0.2 ml of reaction buffer at 25° C. for 30 minutes. The amount of nonspecific binding was determined by adding substance P at a final concentration of 2×10^-6 M. After the reaction, using a cell harvester (290 PHD, Cambridge Technology, Inc, U.S.A.), rapid filtration was carried out through a glass filter (GF/B, Whatman, U.S.A.) to stop the reaction. After washing three times with 250 ul of 50 mM of Tris-HCl buffer (pH 7.4) containing 0.02% bovine serum albumin, the radioactivity remaining on the filter was determined with a gamma counter. Before use, the filter was immersed in 0.1% polyethyleneimine for 24 hours and air-dried. […] (Radioligand means substance P labelled with ^125 I.) The number of this experiment is one.

As a reminder, the IC50 is the midpoint of a concentration-inhibition curve.

T1 sequence (P25103 whole entry): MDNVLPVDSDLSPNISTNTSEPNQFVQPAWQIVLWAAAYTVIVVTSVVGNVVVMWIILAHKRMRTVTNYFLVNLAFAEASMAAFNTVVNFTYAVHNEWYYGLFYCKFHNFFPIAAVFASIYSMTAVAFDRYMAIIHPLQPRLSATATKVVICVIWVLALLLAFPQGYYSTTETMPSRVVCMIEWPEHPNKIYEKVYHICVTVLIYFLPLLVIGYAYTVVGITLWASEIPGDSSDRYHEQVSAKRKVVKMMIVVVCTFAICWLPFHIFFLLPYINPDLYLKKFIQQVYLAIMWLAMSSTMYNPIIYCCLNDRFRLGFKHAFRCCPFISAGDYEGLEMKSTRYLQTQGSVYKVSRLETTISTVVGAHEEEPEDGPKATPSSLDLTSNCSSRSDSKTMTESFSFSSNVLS

The compound `CN(Cc1cc(C(F)(F)F)cc(C(F)(F)F)c1)C(=O)c1c(-c2ccc(F)cc2)c2c[n+](C)ccc2c(=O)n1C` [Example 33, 3-[N-[3,5-Bis(trifluoromethyl)benzyl]-N-methylaminocarbonyl]-4-(4-fluorophenyl)-1,2-dihydro-2,6-dimethyl-1-oxopyrido[4,3-c]pyridinium iodide] gave an IC50 of 16 nM. This lies in the double-digit nanomolar range.

`CN1CCc2c(c(-c3ccc(F)cc3)c(C(=O)N(C)Cc3cc(C(F)(F)F)cc(C(F)(F)F)c3)n(C)c2=O)C1` [Example 34, N-[3,5-Bis(trifluoromethyl)benzyl]-4-(4-fluorophenyl)-1,2,5,6,7,8-hexahydro-N,2,6-trimethyl-1-oxo-3-pyrido [4,3-c]pyridinecarboxamide] showed an IC50 of 2.1 nM.

The compound `Cc1ccccc1-c1c(C(=O)N(C)Cc2cc(C(F)(F)F)cc(C(F)(F)F)c2)n(C)c(=O)c2cccnc12` [Example 10, N-[3,5-Bis(trifluoromethyl)benzyl]-5,6-dihydro-N, 6-dimethyl-8-(2-methylphenyl)-5-oxo-7-pyrido[4,3-b]pyridinecarboxamide] showed an IC50 of 33 nM.

Turning to `CN(Cc1cc(C(F)(F)F)cc(C(F)(F)F)c1)C(=O)c1c(-c2ccc(F)cc2)c2ccc[n+](C)c2c(=O)n1C` [Example 29, 6-[N-[3,5-Bis(trifluoromethyl)benzyl]-N-methylaminocarbonyl]-5-(4-fluorophenyl)-7,8-dihydro-1,7-dimethyl-8-oxopyrido[3,4-b]pyridinium iodide], the IC50 turned out to be 0.6 nM.

`CN(Cc1cc(C(F)(F)F)cc(C(F)(F)F)c1)C(=O)c1c(-c2ccccc2)c2c(c(=O)n1C)CCCN2` [Example 51] showed an IC50 of 2.1 nM.

On to `CN(Cc1cc(C(F)(F)F)cc(C(F)(F)F)c1)C(=O)c1c(-c2ccccc2)c2ccncc2c(=O)n1C` [Example 37, N-[3,5-Bis(trifluoromethyl)benzyl]-1,2-dihydro-N, 2-dimethyl-1-oxo-4-phenyl-3-pyrido[3,4-c]pyridinecarboxamide], for which the IC50 is 0.62 nM.

As for `CN(Cc1cc(C(F)(F)F)cc(C(F)(F)F)c1)C(=O)c1c(-c2ccccc2)c2ccsc2c(=O)n1C` [Example 44, N-[3,5-bis(trifluoromethyl)benzyl]-6,7-dihydro-N, 6-dimethyl-7-oxo-4-phenyl-5-thieno[2,3-c]pyridinecarboxamide], the IC50 stood at 0.24 nM.

`CN(Cc1cc(C(F)(F)F)cc(C(F)(F)F)c1)C(=O)c1c(-c2ccc(F)cc2)c2ncsc2c(=O)n1C` [Example 40, N-[3,5-Bis(trifluoromethyl)benzyl]-7-(4-fluorophenyl)-4,5-dihydro-N, 5-dimethyl-4-oxo-6-thiazolo[5,4-c]pyridinecarboxamide]: the IC50 was 1.8 nM.

`CN(Cc1cc(C(F)(F)F)cc(C(F)(F)F)c1)C(=O)c1c(-c2ccc(F)cc2)c2cscc2c(=O)n1C` [Example 18, N-[3,5-Bis(trifluoromethyl)benzyl]-7-(4-fluorophenyl)-4,5-dihydro-N, 5-dimethyl-4-oxo-6-thieno[3,4-c]pyridine carboxamide] registered an IC50 of 0.36 nM.

Turning to `COc1ccccc1CN(C)C(=O)c1c(-c2ccccc2)c2ccsc2c(=O)n1C` [Example 46, 6,7-Dihydro-N-(2-methoxybenzyl)-N, 6-dimethyl-7-oxo-4-phenyl-5-thieno[2,3-c]pyridinecarboxamide], the IC50 is 26 nM. Compared with the last compound, the IC50 is about 72-fold higher.

Consider `CN1CCc2c(-c3ccc(F)cc3)c(C(=O)N(C)Cc3cc(C(F)(F)F)cc(C(F)(F)F)c3)n(C)c(=O)c2C1` [Example 32, N-[3,5-Bis(trifluoromethyl)benzyl]-4-(4-fluorophenyl)-1,2,5,6,7,8-hexahydro-N,2,7-trimethyl-1-oxo-3-pyrido[3,4-c]pyridinecarboxamide], for which the IC50 worked out at 0.048 nM.

As to `Cc1ccccc1-c1c(C(=O)N(C)Cc2cc(C(F)(F)F)cc(C(F)(F)F)c2)n(C)c(=O)c2sccc12` [Example 47, N-[3,5-Bis(trifluoromethyl)benzyl]-6,7-dihydro-N, 6-dimethyl-4-(2-methylphenyl)-7-oxo-5-thieno[2,3-c]pyridinecarboxamide], the IC50 is 0.2 nM.

In the case of `CN(Cc1cc(C(F)(F)F)cc(C(F)(F)F)c1)C(=O)c1cnc2sccc2c1-c1ccc(F)cc1` [Example 24, N[3,5-Bis(trifluoromethyl)benzyl]-4-(4-fluorophenyl)-N-methyl-5-thieno[2,3-b]pyridinecarboxamide], the IC50 is 0.2 nM.

In the case of `CN(Cc1cc(C(F)(F)F)cc(C(F)(F)F)c1)C(=O)c1c(-c2ccc(F)cc2)c2c(c(=O)n1C)CCCN2C` [Example 28, N-[3,5-Bis(trifluoromethyl)benzyl]-8-(4-fluorophenyl)-1,2,3,4,5,6-hexahydro-N, 1,6-trimethyl-5-oxo-7-pyrido [4,3-b]pyridinecarboxamide], the 50% inhibitory concentration (IC50) is 5 nM.

Consider `CN(Cc1cc(C(F)(F)F)cc(C(F)(F)F)c1)C(=O)c1c(-c2ccc(F)cc2)c2ncccc2c(=O)n1C` [Example 19, N-[3,5-Bis(trifluoromethyl)benzyl]-8-(4-fluorophenyl)-5,6-dihydro-N, 6-dimethyl-5-oxo-7-pyrido[4,3-b]pyridine carboxamide], for which the IC50 was 0.94 nM.

Take “N-[3,5-Bis(trifluoromethyl)benzyl]-5-(chloro-2-methylphenyl)-7,8-dihydro-N,7-dimethyl-8-oxo-6-pyrido[3,4-b]pyridinecarboxamide and its isomer [Example 11]”: the IC50 came to 0.2 nM.

Regarding `CN(Cc1cc(C(F)(F)F)cc(C(F)(F)F)c1)C(=O)c1c(-c2ccccc2)c2scnc2c(=O)n1C` [Example 43, N-[3,5-Bis(trifluoromethyl)benzyl]-4,5-dihydro-N, 5-dimethyl-4-oxo-7-phenyl-6-thiazolo[4,5-c]pyridinecarboxamide], the IC50 is 1 nM.

As for `CN(Cc1cc(C(F)(F)F)cc(C(F)(F)F)c1)C(=O)c1c(-c2ccc(F)cc2)c2c(c(=O)n1C)N(C)CCC2` [Example 30, N-[3,5-Bis(trifluoromethyl)benzyl]-5-(4-fluorophenyl)-1,2,3,4,7,8-hexahydro-N, 1,7-trimethyl-8-oxo-6-pyrido [3,4-b]pyridinecarboxamide], the IC50 is 0.1 nM.

For the compound `CN(Cc1cc(C(F)(F)F)cc(C(F)(F)F)c1)C(=O)c1c(-c2cccs2)c2ccccc2c(=O)n1C` [Example 21, N[3,5-Bis(trifluoromethyl)benzyl]-1,2-dihydro-N, 2-dimethyl-1-oxo-4-(2-thienyl)-3-isoquinolinecarboxamide], the IC50 was found to be 2.5 nM.

With `CN(Cc1cc(C(F)(F)F)cc(C(F)(F)F)c1)C(=O)c1c(-c2ccc(F)cc2)c2cnccc2c(=O)n1C` [Example 9, N-[3,5-Bis(trifluoromethyl)benzyl]-4-(4-fluorophenyl)-1,2-dihydro-N, 2-dimethyl-1-oxo-3-pyrido[4,3-c]pyridine carboxamide], the IC50 is 1.2 nM.

Take `CN(Cc1cc(C(F)(F)F)cc(C(F)(F)F)c1)C(=O)c1cnc2ccccc2c1-c1ccccn1` [Example 12, N-[3,5-Bis(trifluoromethyl)benzyl]-N-methyl-4-(2-pyridyl)-3-quinolinecarboxamide]: the IC50 was 2.8 nM. Compared with the last compound, the IC50 is about 2.3-fold higher.

Turning to `CN(Cc1cc(C(F)(F)F)cc(C(F)(F)F)c1)C(=O)c1c(-c2ccc(F)cc2)c2cc[n+](C)cc2c(=O)n1C` [Example 31, 3-[N-[3,5-Bis(trifluoromethyl)benzyl]-N-methylaminocarbonyl]-4-(4-fluorophenyl)-1,2-dihydro-2,7-dimethyl-1-oxopyrido[3,4-c]pyridinium iodide], the IC50 amounted to 0.33 nM.

As to `COc1ccccc1CNC(=O)c1c(-c2ccc(F)cc2)c2cccnc2c(=O)n1C` [Example 3, 5-(4-Fluorophenyl)-7,8-dihydro-N-(2-methoxybenzyl)-7-methyl-8-oxo-6-pyrido[3,4-b]pyridinecarboxamide], the IC50 was 14 nM.

Turning to `COc1ccccc1CN(C)C(=O)c1c(-c2ccc(F)cc2)c2cccnc2c(=O)n1C` [Example 4, 5-(4-Fluorophenyl)-7,8-dihydro-N-(2-methoxybenzyl)-N,7-dimethyl-8-oxo-6-pyrido[3,4-b]pyridinecarboxamide], the IC50 came out at 2.5 nM. Against the preceding compound, the IC50 is about 5.6-fold lower.

As to `CN(Cc1cc(C(F)(F)F)cc(C(F)(F)F)c1)C(=O)c1c(-c2ccccc2)c2c(c(=O)n1C)NCCC2` [Example 55, N-[3,5-Bis(trifluoromethyl)benzyl]-1,2,3,4,7,8-hexahydro-5-phenyl-N,7-dimethyl-8-oxo-6-pyrido[3,4-b]pyridinecarboxamide], the IC50 came to 0.7 nM.

Take `CN(Cc1cc(C(F)(F)F)cc(C(F)(F)F)c1)C(=O)c1c(-c2ccc(F)cc2)c2ccc(=O)n(C)c2c(=O)n1C` [Example 35, N-[3,5-Bis(trifluoromethyl)benzyl]-5-(4-fluorophenyl)-1,2,7,8-tetrahydro-N,1,7-trimethyl-2,8-dioxo-6-pyrido [3,4-b]pyridinecarboxamide]: the IC50 turned out to be 0.35 nM.
